≈ marks a conversion by molar mass, not a printed value.

The subject of data set [1] is wild-type (wt) M. tuberculosis strain. Put plainly: microbe, parasite or virus in culture. It is filed as cell-based, Mycobacterium tuberculosis. The settings on record: Mycobacterium tuberculosis, 120 h, […]; OD590 after 5 days at 37 °C; average ± SD of at least two experiments, b = single value; read-out: WT MIC.
Data set [2] concerns M. tuberculosis strain SPAM13C (LepB-UE). Put plainly: microbe, parasite or virus in culture. In kind it is cell-based, Mycobacterium tuberculosis. To be noted: Mycobacterium tuberculosis, 120 h, M. tuberculosis strain SPAM13C; OD590 after 5 days at 37 °C; average ± SD of at least two experiments, b = single value; read-out: LepB-UE MIC.
In the next data set the test system is Vero cells. Put plainly: in vitro. In kind it is cell-based, African green monkey. The settings on record: relative to compound 16. On the procedure:
(§1) Cytotoxicity against African green monkey adult kidney cell (Vero cells) was determined as previously described using CellTiter-Glo reagent.[44] The concentration causing 50% growth inhibition (IC50) was calculated by fitting the inhibition curves using the Levenberg–Marquardt algorithm.

The next data set is described as follows: in vitro. In kind it is cell-based, African green monkey. The settings on record: African green monkey. The procedure: as §1
Another data set addresses T1, LepB (Mycobacterium tuberculosis, UniProt P9WKA1).
T1 construct: we used purified membrane fractions to develop an in vitro assay for signal peptide cleavage; host or cells: γ-irradiated whole M. tuberculosis H37Rv; Triton X-114 membrane fraction
T1 sequence (P9WKA1 1-294): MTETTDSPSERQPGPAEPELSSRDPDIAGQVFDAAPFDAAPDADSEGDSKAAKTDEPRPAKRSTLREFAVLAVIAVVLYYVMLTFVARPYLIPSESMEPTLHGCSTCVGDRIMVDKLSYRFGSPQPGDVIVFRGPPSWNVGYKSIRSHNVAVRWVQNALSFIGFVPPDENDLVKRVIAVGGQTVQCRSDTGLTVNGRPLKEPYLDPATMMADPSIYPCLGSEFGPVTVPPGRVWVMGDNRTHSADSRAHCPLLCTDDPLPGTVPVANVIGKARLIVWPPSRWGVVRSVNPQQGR
In words: LepB membrane assay (fluorogenic signal peptide cleavage by cell membrane fraction). It is filed as biochemical. The settings on record: M. tuberculosis H37Rv cell membrane fraction, 2 μM peptide substrate, 4 h at 37 °C.

Broadly, the CC50 is the concentration at which the toxic effect on the cells reaches its halfway point. Turning to `COc1ccc([N+](=O)[O-])cc1/C=N/NC(=N)c1ccccn1` [Compound 33], the MIC in data set [1] and in data set [2] was > 200 µM throughout. Besides, the “Decrease in selectivity compared to 16” value with Vero cells was found to be 15 fold. Also, the CC50 in “in vitro” is > 100 µM.

With `N=C(N/N=C/c1cccc([N+](=O)[O-])c1)c1ccccn1` [Compound 34], the values for the MIC in data set [1] and in data set [2] were > 200 µM and 106 µM (≈ 28.5 µg/mL), respectively. In addition, in the data set with Vero cells, the “Decrease in selectivity compared to 16” value is listed as 15 fold. Also, the CC50 in the data set “in vitro” is > 100 µM.

As usually defined, the IC50 is the point on the concentration scale where inhibition reaches its midpoint. As to `Oc1ccccc1/C=N/Nc1nc(-c2ccccc2)cs1` [Compound 2], the values for the MIC in data set [1] and in data set [2] were 43 ± 26 µM (≈ 12.7 µg/mL) and 9.3 ± 3.2 µM (≈ 2.75 µg/mL), respectively. In addition, on LepB, the IC50 was > 200 µM. The molecule also yielded a CC50 in the data set “in vitro” of 13 µM.

For `CC1=NN(c2nc(C)cc(C)n2)C(=O)C1C` (stereo not drawn) [Compound 46], the MIC in data set [1] is > 200 µM; in data set [2] it was 90 ± 28 µM (≈ 19.6 µg/mL). In addition, at LepB, the IC50 is > 200 µM. The CC50 in “in vitro” is > 100 µM.

For the molecule `N=C(N/N=C/c1cc([N+](=O)[O-])ccc1O)c1ccccn1` [Compound 16], the MIC in data set [1] was > 200 µM; in data set [2], 10 ± 3.4 µM (≈ 2.85 µg/mL). This molecule also yielded an IC50 against LepB of 119 µM. The CC50 in the data set “in vitro” was > 100 µM.

Take `COc1ccc(CC(=O)N/N=C(\C)c2ccccn2)cc1OC` [Compound 36]: the MIC was 53 ± 2 µM (≈ 16.6 µg/mL) in data set [1] and 26 ± 1 µM (≈ 8.15 µg/mL) in data set [2]. Moreover, the IC50 against LepB was > 200 µM. The molecule further came in with a CC50 in the data set “in vitro” of 12 µM.

For the origin of these results see article PMC5215716, “A Target-Based Whole Cell Screen Approach To Identify Potential Inhibitors of Mycobacterium tuberculosis Signal Peptidase” (ACS Infectious Diseases, 2016).
